Results on two compounds are retold here after patent US11596641B2, “Methods and compositions for treating meibomian gland dysfunction” (priority 2020, dated 2023).

Structures are written as SMILES. Counter-ions that a name gives are not always drawn. Like-named read-outs stand apart in the source and are kept apart here.

This data set can be described thus: pKa values. In kind it is physicochemical.

Regarding `CN(C)c1ccc(O)c2c1C[C@H]1C[C@H]3[C@H](N(C)C)C(O)=C(C(N)=O)C(=O)[C@@]3(O)C(O)=C1C2=O` [minocycline hydrochloride], the “pKa value (third printed)” value (third of three pKa values, hydrochloride) is listed as 9.3.

For the compound `CN(C)c1ccc(O)c2c1C[C@H]1C[C@H]3[C@H](N(C)C)C(O)=C(C(N)=O)C(=O)[C@@]3(O)C(O)=C1C2=O` [minocycline], the pKa (commonly the pH at which an ionisable group is half protonated) was found to be 3.5 (first of three pKa values, read-out: pKa value (first given)); 7.6 (second of three pKa values, read-out: pKa value); 9.2 (third of three pKa values, read-out: pKa value (third printed)).
